This note sets out measurements from patent US11939307B2, “Phenylmethyl-piperazine derivatives and antiviral uses thereof” (INSTITUTE OF MEDICINAL BIOTECHNOLOGY, CHINESE ACADEMY OF …, priority 2019, dated 2024).

A value given as a limit tells only on which side of the number the result lay.

This test deals with HCV. In words: Assay of anti-HCV activity in HCV-infected Huh7.5 cells (intracellular HCV RNA by one-step quantitative RT-PCR). As to conditions: Hepatitis C virus; compound at 1 μM; Huh7.5 cells infected with HCV; 96 hrs; intracellular HCV RNA vs viral control; read-out: inhibitory activities (inhibitory levels of the compounds against HCV replication). The format is cell-based. Put shortly: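 Huh7.5 cells were infected with HCV particles while compounds were added at 1 μM, then incubated 96 h at 37 °C, 5% CO2. Intracellular HCV RNA was quantified by one-step qRT-PCR, and inhibition was calculated relative to the viral control.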
For `CN(C)CCN(C)c1ccc(C(F)(F)F)c(CN2CCC(C(c3ccc(Br)cc3)c3ccc(Br)cc3)CC2)c1` [Compound 73, N^1-(3-((4-(bis(4-bromophenyl)methyl)piperidin-1-yl)methyl)-4-(trifluoromethyl)phenyl)-N^1,N^2,N^2-trimethylethan-1,2-diamine], the inhibition at 1 µM was greater than 75%.

As to `CN1CCCN(c2ccc(C(F)(F)F)c(CN3CCN(c4ccc(F)c(Cl)c4)CC3)c2)CC1` [Compound 37, 1-(3-((4-(3-chloro-4-fluorophenyl)piperazin-1-yl)methyl)-4-(trifluoromethyl)phenyl)-4-methyl-1,4-diazepane], the inhibition at 1 µM is greater than 75%.

For `CN1CCC(N(C)c2ccc(C(F)(F)F)c(CN3CCN(c4ccc(Cl)cc4)CC3)c2)C1` (stereo not shown) [Compound 92], the inhibition at 1 µM was greater than 75%.

For the compound `CN(CCN1CCCC1)c1ccc(C#N)c(CN2CCN(C(c3ccc(Cl)cc3)c3ccc(Cl)cc3)CC2)c1` [Compound 86, 2-((4-(bis(4-chlorophenyl)methyl)piperazin-1-yl)methyl)-4-(methyl(2-(pyrrolidin-1-yl)ethyl)amino)benzonitrile], the inhibition at 1 µM was greater than 75%.
